The text below walks through data of patent US11965126B2, “Flame retardant for thermosetting resin including aromatic phosphoric acid ester, thermosetting resin composition including same, and cured material and application of same” (priority 2018, dated 2024).

Like-named read-outs stand apart in the source and are kept apart here. A value given as a limit tells only on which side of the number the result lay.

The data set is described as follows: Solvent solubility of flame retardants. Format: physicochemical. The conditions noted are these: for Solvent solubility compared with FR4 and FR5: comparison with traditionally-known phosphorus-type flame retardants FR4 and FR5. As for the experimental part:
5 g of a flame retardant was added repeatedly to 100 mL of the following respective solvents at a temperature of 20° C. until the undissolved flame retardant was detected; and a largest amount of the flame retardant dissolved was measured. This largest amount was considered to be solvent solubility. • Solvents: toluene, methyl ethyl ketone (MEK), and propylene glycol monomethyl ether (PM) Materials for Synthesizing Aromatic Phosphoric Acid Esters
Flame retardants FR1 to FR4 as the flame retardants for thermosetting resin were evaluated for solvent solubility by the above method.

[1] abbreviates: methyl ethyl ketone, 20° C., largest amount dissolved, added in 5 g portions.
[2] abbreviates: propylene glycol monomethyl ether, 20° C., largest amount dissolved, added in 5 g portions.
Setting [3] is: toluene, 20° C., largest amount dissolved, added in 5 g portions.

On to `Cc1cccc(C)c1OP(=O)(Oc1ccc(C2(c3ccc(OP(=O)(Oc4c(C)cccc4C)Oc4c(C)cccc4C)cc3)CC(C)CC(C)(C)C2)cc1)Oc1c(C)cccc1C` (centres unmarked) [FR1], for which the “Solvent solubility compared with FR4 and FR5” value was “superior in solvent solubility”. For the same compound, the “Solvent solubility, MEK” value under setting [1] is reported as 135 g/100 mL. Also, the “Solvent solubility, PM” value under setting [2] was 85 g/100 mL. Moreover, the “Solvent solubility, Toluene” value under setting [3] was found to be 140 g/100 mL.
For `Cc1cccc(C)c1OP(=O)(Oc1ccc(C2(c3ccc(OP(=O)(Oc4c(C)cccc4C)Oc4c(C)cccc4C)cc3)CCCCCCCCCCC2)cc1)Oc1c(C)cccc1C` [FR2] the same measures were “superior in solvent solubility”, 50 g/100 mL, 10 g/100 mL and 130 g/100 mL.
Take `Cc1cccc(C)c1OP(=O)(Oc1cccc(OP(=O)(Oc2c(C)cccc2C)Oc2c(C)cccc2C)c1)Oc1c(C)cccc1C` [FR3, 1,3-phenylenebis(di-2,6-xylyl phosphate), reference compound]: the “Solvent solubility, MEK” value came to 55 g/100 mL; the “Solvent solubility, PM” value stood at 10 g/100 mL; the “Solvent solubility, Toluene” value was 75 g/100 mL.
Consider `O=[PH]1Oc2ccccc2-c2ccccc21` (centres unmarked) [FR5, 9,10-dihydro-9-oxa-10-phosphaphenanthrene-10-oxide, reference compound], for which the “Solvent solubility, MEK” value under setting [1] is recorded as 5 g/100 mL. For the same compound, the “Solvent solubility, PM” value under setting [2] is reported as 15 g/100 mL. Also, under setting [3], the “Solvent solubility, Toluene” value is <5 g/100 mL.
